Data published in article PMC10610545, “Preclinical Evaluation of an Imidazole-Linked Heterocycle for Alzheimer’s Disease” (Pharmaceutics, 2023).
Structures can show the parent of a compound that is named as a salt.

Legend:
[1] = tested on: imidazoline I2 receptors (I2-IR); test: Competition binding against [3H]2-BFI, membranes from post-mortem human frontal cortex; conditions: for Selectivity I2/α2: antilog (pKi I2-IR − pKi α2-AR); for [3H]-2-BFI I2 pKi (One Site): monophasic fit; for [3H]-2-BFI I2 pKi (Two Sites), high affinity (pKiH) / [3H]-2-BFI I2 pKi (Two Sites), low affinity (pKiL): two-site model; for [3H]-2-BFI I2 pKi (Two Sites), high affinity (pKiH): high-affinity site; for [3H]-2-BFI I2 pKi (Two Sites), low affinity (pKiL): low-affinity site
Excerpt: (§1) The inhibition constant (Ki) for each compound was obtained and is expressed as the corresponding pKi. The selectivity for these two receptors was expressed by the I2/α2 index, calculated as the antilogarithm of the […] between pKi values for I2-IR and pKi values for α2-AR.
(§2) Preparation of cellular membranes.
(§3) Human brain samples were obtained at autopsy in the Basque Institute of Legal Medicine, Bilbao, Spain. Samples from the prefrontal cortex (Brodmann’s area 9) were dissected at the time of autopsy and immediately stored at -70 °C until assay. The study was developed in compliance with policies of research and ethical review boards for postmortem brain studies.
(§4) To obtain cellular membranes (P2 fraction) the different samples were homogenized using an ultraturrax in 10 volumes of homogenization buffer (0.25 M sucrose, 5 mM Tris–HCl, pH 7.4).
(§5) The crude homogenate was centrifuged for 5 min at 1000 g (4 °C) and the supernatant was centrifuged again for 10 min at 40,000 g (4 °C). The resultant pellet was washed twice in 5 volumes of homogenization buffer and recentrifuged in similar conditions. Protein content was measured according to the method of Bradford using BSA as standard.
(§6) Competition Binding Assays.
(§7) The pharmacological activity of the compounds was evaluated through competition binding studies against the I2-IR selective radioligand [3H]2-BFI or the α2-adrenergic receptor selective radioligand [3H]RX821002. Specific binding was measured in 0.25 mL aliquots (50 mM Tris-HCl, pH 7.5) containing 100 µg of membranes, which were incubated in 96-well plates either with […]
(§8) Incubations were terminated by separating free ligand from bound ligand by rapid filtration […]
(§9) counted for radioactivity by liquid scintillation spectrometry using a MicroBeta TriLux counter (PerkinElmer). Specific binding was determined and plotted as a function of the compound concentration. Nonspecific binding was determined in the presence of idazoxan (10–5 M), a compound with well stablished affinity for I2-IR and α2-adrenergic receptors, in [3H]2-BFI and [3H]RX821002 assays. To obtain the inhibition constant (Ki) analyses of competition experiments were performed by nonlinear regression using the GraphPad Prism program. Ki values were normalized to pKi values. I2-IR/α2 selectivity index was calculated as the antilogarithm of the difference between pKi values for I2-IR and pKi values for α2-ARs.

[2] = target: α2-adrenergic receptor (α2-AR); test: Competition binding against [3H]RX821002, membranes from post-mortem human frontal cortex
Excerpt: as §1, §2, §3, §4, §5, §6, §7, §8, §9

[3] = PAMPA-BBB permeation assay; assay type: in vitro ADME, porcine; conditions: pig, PBS/EtOH (70:30), mean ± SD, read-out: Permeability Pe
Description: In vitro Blood-Brain Barrier Permeation Assay
To evaluate the brain penetration of the different compounds, a parallel artificial membrane permeation assay for blood-brain barrier was used, following the method described by Di et al.1 The in vitro permeability (Pe) of fourteen commercial drugs (see Table S1) through lipid extract of porcine brain membrane together with the test compounds were determined. Commercial drugs and assayed compounds were tested using a mixture of PBS:ETOH (70:30). Assay validation was made by comparing the experimental permeability with the reported values of the commercial drugs by bibliography and lineal correlation between experimental and reported permeability of the fourteen commercial drugs using the parallel artificial membrane permeation […]
From this equation and taking into account the limits established by Di et al. for BBB permeation, we established the ranges of permeability […]
predictive penetration in the CNS used as references.
1 Di, L.; Kerns, E. H.; Fan, K.; McConnell, O. J.; and Carter, G. T. High throughput artificial membrane permeability assay for blood-brain barrier.

| SMILES | Selectivity I2/α2 [1] | [3H]-2-BFI I2 pKi (One Site) [1] | [3H]-RX821002 α2 pKi [2] | Ki ([1]; corresponds to pKiH, read-out: Ki of the high-affinity I2 site) [nM] | [3H]-2-BFI I2 pKi (Two Sites), high affinity (pKiH) [1] | [3H]-2-BFI I2 pKi (Two Sites), low affinity (pKiL) [1] | Papp [3] [×10⁻⁶ cm/s] | pKi (exp) α2 ([2]; Table S3, new ligands and known I2-IR ligands) | pKi (exp) I2 ([1]; Table S2, new ligands and known I2-IR ligands) |
| --- | --- | --- | --- | --- | --- | --- | --- | --- | --- |
| c1ccc(-c2ncc3cc(-n4ccnc4)ccc3n2)cc1 [CR4056] | 1995 | 5.95 ± 0.11 | – | – | – | – | – | – | – |
| c1ccc2oc(C3=NCCN3)cc2c1 [Compound 2-BFI, 2-(2-benzofuranyl)-2-imidazoline] | 5370 | 8.31 ± 0.13 | 4.58 ± 0.22 | 1 | 9.08 ± 0.22 | 7.15 ± 0.31 | – | – | – |
| c1ccc2c(c1)OCC(C1=NCCN1)O2 (stereo not drawn) [Idazoxan] | – | 7.41 ± 0.63 | 7.92 ± 0.07 | – | 7.87 ± 0.74 | 5.76 ± 0.57 | – | – | – |
| Cl.c1ccc2[nH]c(-n3ccnc3)cc2c1 [LSL29, 2-Imidazol-1-yl-1H-indole hydrochloride] | – | 4.57 ± 0.23 | 4.99 ± 0.18 | – | 8.54 ± 0.71 | 4.09 ± 0.22 | 10.8 ± 0.4 | – | – |
| C(=C\c1ccccc1)/C1=NCCN1 [Tracizoline, reference compound] | – | – | – | – | – | – | – | 4.330 | 7.580 |

The remaining lines, values ahead:

| Selectivity I2/α2 [1] | [3H]-2-BFI I2 pKi (One Site) [1] | [3H]-RX821002 α2 pKi [2] | Ki ([1]; corresponds to pKiH, read-out: Ki of the high-affinity I2 site) [nM] | [3H]-2-BFI I2 pKi (Two Sites), high affinity (pKiH) [1] | [3H]-2-BFI I2 pKi (Two Sites), low affinity (pKiL) [1] | Papp [3] [×10⁻⁶ cm/s] | pKi (exp) α2 ([2]; Table S3, new ligands and known I2-IR ligands) | pKi (exp) I2 ([1]; Table S2, new ligands and known I2-IR ligands) | SMILES |
| --- | --- | --- | --- | --- | --- | --- | --- | --- | --- |
| – | 5.49 ± 0.14 | 5.24 ± 0.26 | – | – | – | 16.2 ± 0.9 | – | – | Cl.c1ccc2nc(-n3ccnc3)ccc2c1 [LSL35, 1-(Quinoline-2-yl)-1H-imidazole hydrochloride] |
| – | 6.10 ± 0.25 | 3.97 ± 0.25 | – | – | – | – | – | – | c1ccc2c(c1)OCC(c1ncc[nH]1)O2 (stereo not drawn) [LSL39, 2-(2,3-Dihydrobenzo[1, 4]dioxin-2-yl)-1H-imidazole hydrochloride] |
| – | 5.24 ± 0.12 | 5.32 ± 0.24 | – | – | – | 5.8 ± 0.2 | – | – | Cl.c1ccc2nc(-c3ncc[nH]3)ccc2c1 [LSL42, 2-(Quinoline-2-yl)-1H-imidazole hydrochloride] |
